{"source": "patent US20100104659A1", "about": "“BENZOPYRANOPYRAZOLES” (priority 2006, published 2010)", "note": "Structures can show the parent of a compound that is named as a salt."}
{"system": "not given", "test": "not given", "conditions": "not given", "units": {"melting point": "°C"}}
{"smiles": "CN(C)CCCN(C)C(=O)N1N=C2c3cc(F)ccc3OC[C@@H]2[C@@H]1c1cccc(O)c1", "note": "(racemic) (as salt: salt) [Example 6, (3RS,3aRS)-8-Fluoro-3-(3-hydroxy-phenyl)-3a,4-dihydro-3H-chromeno[4,3-c]pyrazole-2-carboxylic acid (3-dimethylamino-propyl)-methyl-amide]", "melting point": 145}
{"smiles": "CN(C)CCN(C)C(=O)N1N=C2c3cc(F)ccc3OC[C@@H]2[C@@H]1c1ccccc1", "note": "(racemic) (as salt: salt) [Example 19, (3RS,3aRS)-8-Fluoro-3-phenyl-3a,4-dihydro-3H-chromeno[4,3-c]pyrazole-2-carboxylic acid (2-dimethylamino-ethyl)-methyl-amide]", "melting point": "248 to 250"}
{"system": "RKO human colon adenocarcinoma cells (RKOp27 subclone), proliferating", "test": "Alamar Blue cell viability assay, RKO p27 uninduced (proliferating)", "conditions": "RKOp27, 72 h, read-out: −log EC50 [mol/l] RKO p27 uninduced (proliferating), anti-proliferative/cytotoxic activity (converted)", "units": {"EC50": "µM"}, "method": "The anti-proliferative/cytotoxic activity of the compounds described herein can be tested on subclones of RKO human colon adenocarcinoma cells (Schmidt et al., Oncogene 19, 2423-2429; 2000) using the Alamar Blue cell viability assay (described in O'Brien et al. Eur J Biochem 267, 5421-5426, 2000). The compounds are dissolved as 10 mM solutions in DMSO and subsequently diluted in semi-logarithmic steps. DMSO dilutions are further diluted 1:100 into Dulbecco's modified Eagle's medium (DMEM) containing 10% fetal calf serum to a final concentration twice as much as the final concentration in the test. RKO subclones are seeded into 96 well flat bottom plates at a density of 4000 cells per well in a volume of 50 μl per well. 24 hours after seeding the 50 μl each of the compound dilutions in DMEM medium are added into each well of the 96 well plate. Each compound dilution is tested as triplicates. Wells containing untreated control cells are filled with 50 μl DMEM medium containing 1% DMSO. The cells are then incubated with the substances for 72 hours at 37° C. in a humidified atmosphere containing 5% carbon dioxide. To determine the viability of the cells, 10 μl of an Alamar Blue solution (Biosource) are added and the fluorescence is measured at an extinction of 544 nm and an emission of 590 nm. For the calculation of the cell viability the emission value from untreated cells is set as 100% viability and the emission rates of treated cells are set in relation to the values of untreated cells. Viabilities are expressed as % values. The Graphpad Prism program (GraphPad Software, Inc) is used for the calculation of EC50 values for anti-proliferative/cytotoxic activity out of the obtained dose-response curves.\nEach compound dilution is tested as triplicates. Wells containing untreated control cells are filled with 50 μl DMEM medium containing 1% DMSO. The cells are then incubated with the substances for 72 hours at 37° C. in a humidified atmosphere containing 5% carbon dioxide. To determine the viability of the cells, 10 μl of an Alamar Blue solution (Biosource) are added and the fluorescence is measured at an extinction of 544 nm and an emission of 590 nm. For the calculation of the cell viability the emission value from untreated cells is set as 100% viability and the emission rates of treated cells are set in relation to the values of untreated cells. Viabilities are expressed as % values. The Graphpad Prism program is used for the calculation of EC50 values out of the obtained dose-response curves. Viability is compared of proliferating cells grown in the absence of the inducer Ponasterone A, versus viability of cells arrested by the expression of ectopic p27Kip1 induced by Ponasterone A."}
{"smiles": "CN(CCNC(C)(C)C)C(=O)N1N=C2c3cc(F)ccc3OC[C@H]2[C@H]1c1ccccc1", "note": "(racemic) [Example 40, (3SR,3aSR)-8-Fluoro-3-phenyl-3a,4-dihydro-3H-chromeno[4,3-c]pyrazole-2-carboxylic acid (2-tert-butylamino-ethyl)-methyl-amide]", "EC50": "≤ 0.1"}
{"smiles": "CN(CCO)CCN(C)C(=O)N1N=C2c3cc(F)ccc3OC[C@H]2[C@H]1c1ccccc1", "note": "(racemic) [Example 49, (3SR,3aSR)-8-Fluoro-3-phenyl-3a,4-dihydro-3H-chromeno[4,3-c]pyrazole-2-carboxylic acid {2-[(2-hydroxy-ethyl)-methyl-amino]-ethyl}-methyl-amide]", "EC50": "≤ 0.1"}
{"smiles": "CN1CCC(N(C(=O)N2N=C3c4cc(F)ccc4OC[C@@H]3[C@@H]2c2cccc(O)c2)C2CC2)CC1", "note": "(racemic) [Example 5, (3RS,3aRS)-8-Fluoro-3-(3-hydroxy-phenyl)-3a,4-dihydro-3H-chromeno[4,3-c]pyrazole-2-carboxylic acid cyclopropyl-(1-methyl-piperidin-4-yl)-amide]", "EC50": "0.1 to 1"}
{"smiles": "CC(=O)N1CCN(CCCN(C)C(=O)N2N=C3c4cc(F)ccc4OC[C@H]3[C@H]2c2ccccc2)CC1", "note": "(racemic) [Example 35, (3SR,3aSR)-8-Fluoro-3-phenyl-3a,4-dihydro-3H-chromeno[4,3-c]pyrazole-2-carboxylic acid [3-(4-acetyl-piperazin-1-yl)-propyl]-methyl-amide]", "EC50": "0.1 to 1"}
{"smiles": "CCN(CCN(C)C)C(=O)N1N=C2c3cc(F)ccc3OC[C@@H]2[C@@H]1c1ccccc1", "note": "(racemic) [Example 10, (3RS,3aRS)-8-Fluoro-3-phenyl-3a,4-dihydro-3H-chromeno[4,3-c]pyrazole-2-carboxylic acid (2-dimethylamino-ethyl)-ethyl-amide]", "EC50": "≤ 0.1"}
{"smiles": "CCN(CC)CCN(C)C(=O)N1N=C2c3cc(F)ccc3OC[C@H]2[C@H]1c1ccccc1", "note": "(racemic) [Example 45, (3SR,3aSR)-8-Fluoro-3-phenyl-3a,4-dihydro-3H-chromeno[4,3-c]pyrazole-2-carboxylic acid (2-diethylamino-ethyl)-methyl-amide]", "EC50": "≤ 0.1"}
{"smiles": "CCN(CCO)CCN(C)C(=O)N1N=C2c3cc(F)ccc3OC[C@@H]2[C@@H]1c1ccccc1", "note": "(racemic) [Example 58, (3RS,3aRS)-8-Fluoro-3-phenyl-3a,4-dihydro-3H-chromeno[4,3-c]pyrazole-2-carboxylic acid {2-[ethyl-(2-hydroxy-ethyl)-amino]-ethyl}-methyl-amide]", "EC50": "≤ 0.1"}
{"smiles": "CN1CCC(N(C)C(=O)N2N=C3c4cc(F)ccc4OC[C@@H]3[C@@H]2c2ccccc2)CC1", "note": "(racemic) [Example 9, (3RS,3aRS)-8-Fluoro-3-phenyl-3a,4-dihydro-3H-chromeno[4,3-c]pyrazole-2-carboxylic acid methyl-(1-methyl-piperidin-4-yl)-amide]", "EC50": "≤ 0.1"}
{"smiles": "CN(C)C(=O)N1N=C2c3cc(F)ccc3OC[C@@H]2[C@@H]1c1cccc(O)c1", "note": "(racemic) [Example 2, (3RS,3aRS)-8-Fluoro-3-(3-hydroxy-phenyl)-3a,4-dihydro-3H-chromeno[4,3-c]pyrazole-2-carboxylic acid dimethylamide]", "EC50": "0.1 to 1"}
{"smiles": "CN(C)CCN(C)C(=O)N1N=C2c3cc(F)ccc3OC[C@@H]2[C@@H]1c1ccccc1", "note": "(racemic) [Example 19, (3RS,3aRS)-8-Fluoro-3-phenyl-3a,4-dihydro-3H-chromeno[4,3-c]pyrazole-2-carboxylic acid (2-dimethylamino-ethyl)-methyl-amide]", "EC50": "≤ 0.1"}
{"smiles": "CN(CCN1CCCC1)C(=O)N1N=C2c3cc(F)ccc3OC[C@@H]2[C@@H]1c1ccccc1", "note": "(racemic) [Example 28, (3RS,3aRS)-8-Fluoro-3-phenyl-3a,4-dihydro-3H-chromeno[4,3-c]pyrazole-2-carboxylic acid methyl-(2-pyrrolidin-1-yl-ethyl)-amide]", "EC50": "0.1 to 1"}
{"smiles": "CN1CCC(N(C(=O)N2NC3c4cc(F)ccc4OC[C@H]3[C@@H]2c2ccccc2)C2CC2)CC1", "note": "(mixture of isomers) [Example 15, (3RS,3aRS)-8-Fluoro-3-phenyl-1,3a,4,9b-tetrahydro-3H-chromeno[4,3-c]pyrazole-2-carboxylic acid cyclopropyl-(1-methyl-piperidin-4-yl)-amide]", "EC50": "≤ 0.1"}
{"smiles": "CC(C)CNCCN(C)C(=O)N1N=C2c3cc(F)ccc3OC[C@H]2[C@H]1c1ccccc1", "note": "(racemic) [Example 41, (3SR,3aSR)-8-Fluoro-3-phenyl-3a,4-dihydro-3H-chromeno[4,3-c]pyrazole-2-carboxylic acid (2-isobutylamino-ethyl)-methyl-amide]", "EC50": "≤ 0.1"}
{"smiles": "CN(C)CCCN(C)C(=O)N1N=C2c3cc(F)ccc3OC[C@@H]2[C@@H]1c1ccccc1", "note": "(racemic) [Example 11, (3RS,3aRS)-8-Fluoro-3-phenyl-3a,4-dihydro-3H-chromeno[4,3-c]pyrazole-2-carboxylic acid (3-dimethylamino-propyl)-methyl-amide]", "EC50": "≤ 0.1"}
{"smiles": "CCN(CCCN(C)C(=O)N1N=C2c3cc(F)ccc3OC[C@H]2[C@H]1c1ccccc1)CCOC", "note": "(racemic) [Example 56, (3SR,3aSR)-8-Fluoro-3-phenyl-3a,4-dihydro-3H-chromeno[4,3-c]pyrazole-2-carboxylic acid {3-[ethyl-(2-methoxy-ethyl)-amino]-propyl}-methyl-amide]", "EC50": "0.1 to 1"}
{"smiles": "CN(CCCNCC1CC1)C(=O)N1N=C2c3cc(F)ccc3OC[C@H]2[C@H]1c1ccccc1", "note": "(racemic) [Example 54, (3SR,3aSR)-8-Fluoro-3-phenyl-3a,4-dihydro-3H-chromeno[4,3-c]pyrazole-2-carboxylic acid [3-(cyclopropylmethyl-amino)-propyl]-methyl-amide]", "EC50": "0.1 to 1"}
{"smiles": "CN(CCCN1CCC1)C(=O)N1N=C2c3cc(F)ccc3OC[C@H]2[C@H]1c1ccccc1", "note": "(racemic) [Example 38, (3SR,3aSR)-8-Fluoro-3-phenyl-3a,4-dihydro-3H-chromeno[4,3-c]pyrazole-2-carboxylic acid (3-azetidin-1-yl-propyl)-methyl-amide]", "EC50": "≤ 0.1"}
{"smiles": "CCN(C)CCN(C)C(=O)N1N=C2c3cc(F)ccc3OC[C@H]2[C@H]1c1ccccc1", "note": "(racemic) [Example 53, (3SR,3aSR)-8-Fluoro-3-phenyl-3a,4-dihydro-3H-chromeno[4,3-c]pyrazole-2-carboxylic acid [2-(ethyl-methyl-amino)-ethyl]-methyl-amide]", "EC50": "≤ 0.1"}
{"smiles": "CN(CCNC1CC1)C(=O)N1N=C2c3cc(F)ccc3OC[C@H]2[C@H]1c1ccccc1", "note": "(racemic) [Example 60, (3SR,3aSR)-8-Fluoro-3-phenyl-3a,4-dihydro-3H-chromeno[4,3-c]pyrazole-2-carboxylic acid (2-cyclopropylamino-ethyl)-methyl-amide]", "EC50": "0.1 to 1"}
{"smiles": "CN1CCC(N(C)C(=O)N2N=C3c4cc(F)ccc4OC[C@H]3[C@H]2c2ccccc2)CC1", "note": "[Example 9a, (3S,3aS)-8-Fluoro-3-phenyl-3a,4-dihydro-3H-chromeno[4,3-c]pyrazole-2-carboxylic acid methyl-(1-methyl-piperidin-4-yl)-amide]", "EC50": "≤ 0.1"}
{"smiles": "CN(C(=O)N1N=C2c3cc(F)ccc3OC[C@@H]2[C@@H]1c1cccc(O)c1)C1CCNCC1", "note": "(racemic) [Example 27, (3RS,3aRS)-8-Fluoro-3-(3-hydroxy-phenyl)-3a,4-dihydro-3H-chromeno[4,3-c]pyrazole-2-carboxylic acid methyl-piperidin-4-yl-amide]", "EC50": "≤ 0.1"}
{"smiles": "CN(CCCN1CCCCC1)C(=O)N1N=C2c3cc(F)ccc3OC[C@H]2[C@H]1c1ccccc1", "note": "(racemic) [Example 37, (3SR,3aSR)-8-Fluoro-3-phenyl-3a,4-dihydro-3H-chromeno[4,3-c]pyrazole-2-carboxylic acid methyl-(3-piperidin-1-yl-propyl)-amide]", "EC50": "≤ 0.1"}
{"smiles": "CN(CCNC1CCC1)C(=O)N1N=C2c3cc(F)ccc3OC[C@H]2[C@H]1c1ccccc1", "note": "(racemic) [Example 44, (3SR,3aSR)-8-Fluoro-3-phenyl-3a,4-dihydro-3H-chromeno[4,3-c]pyrazole-2-carboxylic acid (2-cyclobutylamino-ethyl)-methyl-amide]", "EC50": "≤ 0.1"}
{"smiles": "CN(C)C(=O)N1N=C2c3cc(F)ccc3OC[C@H]2[C@@H]1c1cccc(O)c1", "note": "(racemic) [Example 1, (3RS,3aSR)-8-Fluoro-3-(3-hydroxy-phenyl)-3a,4-dihydro-3H-chromeno[4,3-c]pyrazole-2-carboxylic acid dimethylamide]", "EC50": "0.1 to 1"}
{"smiles": "CN(CCCN1CCCC1)C(=O)N1N=C2c3cc(F)ccc3OC[C@H]2[C@H]1c1ccccc1", "note": "(racemic) [Example 34, (3SR,3aSR)-8-Fluoro-3-phenyl-3a,4-dihydro-3H-chromeno[4,3-c]pyrazole-2-carboxylic acid methyl-(3-pyrrolidin-1-yl-propyl)-amide]", "EC50": "≤ 0.1"}
{"smiles": "CC1CCN(CCN(C)C(=O)N2N=C3c4cc(F)ccc4OC[C@H]3[C@H]2c2ccccc2)CC1", "note": "(racemic) [Example 65, (3SR,3aSR)-8-Fluoro-3-phenyl-3a,4-dihydro-3H-chromeno[4,3-c]pyrazole-2-carboxylic acid methyl-[2-(4-methyl-piperidin-1-yl)-ethyl]-amide]", "EC50": "0.1 to 1"}
{"smiles": "CNCCCN(C)C(=O)N1N=C2c3cc(F)ccc3OC[C@@H]2[C@@H]1c1ccccc1", "note": "(racemic) [Example 22, (3RS,3aRS)-8-Fluoro-3-phenyl-3a,4-dihydro-3H-chromeno[4,3-c]pyrazole-2-carboxylic acid methyl-(3-methylamino-propyl)-amide]", "EC50": "≤ 0.1"}
